{"source": "ChEMBL document CHEMBL2311252", "about": "“Cytosporone S with antimicrobial activity, isolated from the fungus Trichoderma sp. FKI-6626” (2013)", "key": {"Staphylococcus aureus [1]": {"system": "Staphylococcus aureus", "test": "Antibacterial activity against Staphylococcus aureus KB210 ATCC 6538p by agar dilution method", "type": "functional"}, "Kocuria rhizophila [2]": {"system": "Kocuria rhizophila", "test": "Antibacterial activity against Kocuria rhizophila KB354 NBRC12708 by agar dilution method", "type": "functional"}, "Staphylococcus aureus [3]": {"system": "Staphylococcus aureus", "test": "Antibacterial activity against Staphylococcus aureus KB335 JCM2151 by agar dilution method", "type": "functional"}, "Mucor racemosus": {"system": "Mucor racemosus", "test": "Antifungal activity against Mucor racemosus KF223 NBRC4581 by agar dilution method", "type": "functional"}, "Salmonella typhimurium": {"system": "Salmonella typhimurium", "test": "Antibacterial activity against Salmonella typhimurium KB20 by agar dilution method", "type": "functional, Salmonella enterica subsp. enterica serovar Typhimurium", "conditions": "Salmonella enterica"}, "Pseudomonas aeruginosa [4]": {"system": "Pseudomonas aeruginosa", "test": "Antibacterial activity against Pseudomonas aeruginosa KB115 NBRC3080 by agar dilution method", "type": "functional"}, "Serratia marcescens": {"system": "Serratia marcescens", "test": "Antibacterial activity against Serratia marcescens KB215 IAM1021 by agar dilution method", "type": "functional"}, "Proteus mirabilis": {"system": "Proteus mirabilis", "test": "Antibacterial activity against Proteus mirabilis KB125 NBRC3849 by agar dilution method", "type": "functional"}, "Aspergillus oryzae": {"system": "Aspergillus oryzae", "test": "Antifungal activity against Aspergillus oryzae KF439 by agar dilution method", "type": "functional"}, "Bacillus subtilis [5]": {"system": "Bacillus subtilis", "test": "Antibacterial activity against Bacillus subtilis KB340 JCM1465 by agar dilution method", "type": "functional"}, "Saccharomyces cerevisiae": {"system": "Saccharomyces cerevisiae", "test": "Antifungal activity against Saccharomyces cerevisiae KF26 by agar dilution method", "type": "functional"}, "Escherichia coli [6]": {"system": "Escherichia coli", "test": "Antibacterial activity against Escherichia coli KB176 NIHJ JC-2 by agar dilution method", "type": "functional"}, "Pseudomonas aeruginosa [7]": {"system": "Pseudomonas aeruginosa", "test": "Antibacterial activity against Pseudomonas aeruginosa KB359 NBRC12582 by agar dilution method", "type": "functional"}, "Bacillus subtilis [8]": {"system": "Bacillus subtilis", "test": "Antibacterial activity against Bacillus subtilis KB211 ATCC 6633 by agar dilution method", "type": "functional"}, "Comamonas terrigena": {"system": "Comamonas terrigena", "test": "Antibacterial activity against Comamonas terrigena KB358 NBRC13299 by agar dilution method", "type": "functional"}, "Escherichia coli [9]": {"system": "Escherichia coli", "test": "Antibacterial activity against Escherichia coli KB336 JCM5491 by agar dilution method", "type": "functional"}, "Escherichia coli [10]": {"system": "Escherichia coli", "test": "Antibacterial activity against Escherichia coli KB213 NIHJ by agar dilution method", "type": "functional"}, "Kocuria rhizophila [11]": {"system": "Kocuria rhizophila", "test": "Antibacterial activity against Kocuria rhizophila KB212 ATCC 9341 by agar dilution method", "type": "functional"}, "Klebsiella pneumoniae [12]": {"system": "Klebsiella pneumoniae", "test": "Antibacterial activity against Klebsiella pneumoniae KB214 ATCC 10031 by agar dilution method", "type": "functional"}, "[13]": {"system": "Mycolicibacterium smegmatis", "test": "Antibacterial activity against Mycobacterium smegmatis KB42 ATCC 607 by agar dilution method", "type": "functional"}, "Staphylococcus aureus [14]": {"system": "Staphylococcus aureus", "test": "Antibacterial activity against Staphylococcus aureus KB349 MRSA K24 by agar dilution method", "type": "functional"}, "[15]": {"system": "Staphylococcus epidermidis", "test": "Antibacterial activity against Staphylococcus epidermidis KB352 NBRC12993 by agar dilution method", "type": "functional"}, "Proteus vulgaris": {"system": "Proteus vulgaris", "test": "Antibacterial activity against Proteus vulgaris KB127 IF03167 by agar dilution method", "type": "functional"}, "Candida albicans": {"system": "Candida albicans", "test": "Antifungal activity against Candida albicans KF1 by agar dilution method", "type": "functional"}, "Micrococcus luteus": {"system": "Micrococcus luteus", "test": "Antibacterial activity against Micrococcus luteus KB453 NBRC13867 by agar dilution method", "type": "functional"}, "Bacillus cereus": {"system": "Bacillus cereus", "test": "Antibacterial activity against Bacillus cereus KB143 NBRC3001 by agar dilution method", "type": "functional"}, "Aspergillus niger": {"system": "Aspergillus niger", "test": "Antifungal activity against Aspergillus niger KF104 ATCC 9643 by agar dilution method", "type": "functional"}, "Klebsiella pneumoniae [16]": {"system": "Klebsiella pneumoniae", "test": "Antibacterial activity against Klebsiella pneumoniae KB357 NBRC357 by agar dilution method", "type": "functional"}, "Bacillus subtilis [17]": {"system": "Bacillus subtilis", "test": "Antibacterial activity against Bacillus subtilis KB355 NBRC3134 by agar dilution method", "type": "functional"}}, "data": [{"compound": "CCCCCC1OC(=O)Cc2cc(OC)c(O)c(O)c21", "note": "(racemic)", "values": [{"measurement": "MIC", "setting": "Staphylococcus aureus [1]", "result": 50, "unit": "µg/mL"}, {"measurement": "MIC", "setting": "Kocuria rhizophila [2]", "result": 50, "unit": "µg/mL"}, {"measurement": "MIC", "setting": "Staphylococcus aureus [3]", "result": 50, "unit": "µg/mL"}, {"measurement": "MIC", "setting": "Mucor racemosus", "result": 100, "unit": "µg/mL"}, {"measurement": "MIC", "setting": "Salmonella typhimurium", "result": "> 100", "unit": "µg/mL"}, {"measurement": "MIC", "setting": "Pseudomonas aeruginosa [4]", "result": 100, "unit": "µg/mL"}, {"measurement": "MIC", "setting": "Serratia marcescens", "result": "> 100", "unit": "µg/mL"}, {"measurement": "MIC", "setting": "Proteus mirabilis", "result": 100, "unit": "µg/mL"}, {"measurement": "MIC", "setting": "Aspergillus oryzae", "result": 50, "unit": "µg/mL"}, {"measurement": "MIC", "setting": "Bacillus subtilis [5]", "result": 50, "unit": "µg/mL"}, {"measurement": "MIC", "setting": "Saccharomyces cerevisiae", "result": 12.5, "unit": "µg/mL"}, {"measurement": "MIC", "setting": "Escherichia coli [6]", "result": "> 100", "unit": "µg/mL"}, {"measurement": "MIC", "setting": "Pseudomonas aeruginosa [7]", "result": 100, "unit": "µg/mL"}, {"measurement": "MIC", "setting": "Bacillus subtilis [8]", "result": 100, "unit": "µg/mL"}, {"measurement": "MIC", "setting": "Comamonas terrigena", "result": 50, "unit": "µg/mL"}, {"measurement": "MIC", "setting": "Escherichia coli [9]", "result": "> 100", "unit": "µg/mL"}, {"measurement": "MIC", "setting": "Escherichia coli [10]", "result": 100, "unit": "µg/mL"}, {"measurement": "MIC", "setting": "Kocuria rhizophila [11]", "result": 50, "unit": "µg/mL"}, {"measurement": "MIC", "setting": "Klebsiella pneumoniae [12]", "result": "> 100", "unit": "µg/mL"}, {"measurement": "MIC", "setting": "[13]", "result": 50, "unit": "µg/mL"}, {"measurement": "MIC", "setting": "Staphylococcus aureus [14]", "result": 50, "unit": "µg/mL"}, {"measurement": "MIC", "setting": "[15]", "result": 50, "unit": "µg/mL"}, {"measurement": "MIC", "setting": "Proteus vulgaris", "result": 50, "unit": "µg/mL"}, {"measurement": "MIC", "setting": "Candida albicans", "result": 25, "unit": "µg/mL"}, {"measurement": "MIC", "setting": "Micrococcus luteus", "result": 50, "unit": "µg/mL"}, {"measurement": "MIC", "setting": "Bacillus cereus", "result": 50, "unit": "µg/mL"}, {"measurement": "MIC", "setting": "Aspergillus niger", "result": 50, "unit": "µg/mL"}, {"measurement": "MIC", "setting": "Klebsiella pneumoniae [16]", "result": "> 100", "unit": "µg/mL"}, {"measurement": "MIC", "setting": "Bacillus subtilis [17]", "result": 50, "unit": "µg/mL"}]}]}
